Measurements: the supplement of paper PMC10307832

How the values were obtained:
Experiment in all cases: relative viability (nuclei count vs DMSO), 5 days (fraction); higher = more cells survive
[1] = compound: COC1=CC=C(C=C1)CN2C=CC3=C2C=C(C=C3)C(=O)NO + Cc1nc(NC(=O)N2CCC[C@H]2C(N)=O)sc1-c1ccnc(C(C)(C)C(F)(F)F)c1 [Alpelisib] (partner 2 µM)
Summary of the method: (§1)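 Five library-drug doses in √10 steps were combined with a fixed anchor-drug dose, or a single drug was given alone, by pin tool to lung cancer cell lines in 1536-well plates the day after seeding. Nuclei were stained and counted after 5 days. Relative viability is the nuclei count in treated wells over that in vehicle wells, taken as the median of duplicate plates.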

[2] = compound: COC1=CC=C(C=C1)CN2C=CC3=C2C=C(C=C3)C(=O)NO + Nc1nc2[nH]cc(CCc3ccc(C(=O)N[C@@H](CCC(=O)O)C(=O)O)cc3)c2c(=O)[nH]1 [Pemetrexed] (partner 0.2 µM)
Summary of the method: as §1

Veliparib + Lapatinib = compound: C[C@]1(c2nc3c(C(N)=O)cccc3[nH]2)CCCN1 [Veliparib] + CS(=O)(=O)CCNCc1ccc(-c2ccc3ncnc(Nc4ccc(OCc5cccc(F)c5)c(Cl)c4)c3c2)o1 [Lapatinib] (partner 2 µM)
Summary of the method: as §1

Veliparib + Decitabine = compound: C[C@]1(c2nc3c(C(N)=O)cccc3[nH]2)CCCN1 [Veliparib] + Nc1ncn([C@H]2C[C@H](O)[C@@H](CO)O2)c(=O)n1 [Decitabine] (partner 2 µM)
Summary of the method: as §1

For SW 1573, the relative viability ([1]; first compound 0.253 µM) was 0.824, the relative viability ([1]; first compound 0.8 µM) was 0.734 and the relative viability ([1]; first compound 2.53 µM) was 0.72. The relative viability ([1]; first compound 8 µM) was 0.787, the relative viability ([2]; first compound 0.253 µM) was 0.906 and the relative viability ([2]; first compound 0.8 µM) was 0.82. For the same cell line, the relative viability ([2]; first compound 2.53 µM) was 0.853, the relative viability ([2]; first compound 8 µM) was 0.803 and the relative viability (Veliparib + Lapatinib; first compound 0.02 µM) was 1.04. It also gave a relative viability (Veliparib + Lapatinib; first compound 0.06325 µM) of 1.02, a relative viability (Veliparib + Lapatinib; first compound 0.2 µM) of 0.929 and a relative viability (Veliparib + Lapatinib; first compound 0.6325 µM) of 1.05. It also gave a relative viability (Veliparib + Lapatinib; first compound 2 µM) of 1.04, a relative viability (Veliparib + Decitabine; first compound 0.02 µM) of 0.29 and a relative viability (Veliparib + Decitabine; first compound 0.06325 µM) of 0.289. For the same cell line, the relative viability (Veliparib + Decitabine; first compound 0.2 µM) was 0.287, the relative viability (Veliparib + Decitabine; first compound 0.6325 µM) was 0.361 and the relative viability (Veliparib + Decitabine; first compound 2 µM) was 0.298.
